Source: patent publication US20130123201A1, “MODULATION OF CYTOKINE-INDUCED CHRONIC INFLAMMATORY RESPONSES” (UNIVERSITY OF MANITOBA, priority 2010, published 2013)

Test system: NF-κB subunits p50 and p65
Assay: Translocation of NF-κB subunits p50 and p65 (nuclear extract immunoblots)
Format: cell-based, human
Conditions: 20 ng/mL, 30 mins
Procedure: Translocation of NF-κB subunits p50 and p65: Nuclear extracts were prepared employing NE-PER® extraction reagents (Thermo Fisher Scientific, Toronto, ON, Canada) as per the manufacturer's instructions. In order to monitor direct NF-κB activation, equivalent nuclear extracts (5-8 μg) were resolved on 4-12% NuPAGE® Bis-Tris gels (Invitrogen Canada Inc.) and transferred to nitrocellulose membranes. The membranes were blocked with TBST containing 3% fish skin gelatin (Sigma-Aldrich), and probed with antibodies specific for either NE-κB subunit p50 or p65, in TBST containing 1% fish gelatin. The membranes were also probed with antibody to human histone protein HADC-1 to assess the equivalent protein loading. […]
The presence of common targets in macrophages was supported by the observation that both IL-32 and IL-17 induced similar level of IL-23 mRNA expression (FIG. 8A) and chemokine IL-8 production in human macrophage-like THP-1 cells (FIG. 7C). […] Therefore to further evaluate similarity of induced downstream response in synovial fibroblasts, this study analyzed the direct activation of transcription factor NF-κB. […] We also monitored the activity of NF-κB using a luminescence assay in-vitro employing rabbit synovial fibroblast cell line (HIG-82) in the presence of IL-32 and IL-17. The activation of NF-κB was monitored after 4 and 6 hr of treatment. […]

Q: With “IL-17: Recombinant human cytokine IL-17A/F from eBioscience, used as stimulant” as the substance, how does the “Nuclear translocation of NF-κB p50” value (FLS cells and macrophage-like THP-1 cells) read?
A: mediated nuclear translocation

Q: What about the “Nuclear translocation of NF-κB subunit p65” value (FLS cells and macrophages) of the same substance?
A: mediated
